Reference: patent EP2545917B1, “NOVEL EP4 AGONIST” (Kaken Pharmaceutical Co., Ltd., priority 2010, dated 2011)

Key:
Human EP2 = biological target: T1, Human EP2 (Homo sapiens, UniProt P43116); assay: Receptor affinity, tritium-labeled PGE2 binding to membranes of transfected COS-7 cells
T1 construct: expressed in transfected cells; host or cells: COS-7
Description: (§1) PG receptor affinity of compound F and compound J of the present invention was evaluated. Compound F used was one synthesized in Example 9, and compound J was prepared by separating and purifying the compound synthesized in Example 14 with a column (the same preparations were used in the following Examples). COS-7 cells were transfected with the genes of mouse EP4, human EP1-4 or human IP to overexpress the receptor and then the cell membranes were collected. […] The dissociation constant Kd value was obtained and inhibition constant Ki value of each test compound was determined in a conventional method.

Mouse EP4 = biological target: T2, Mouse EP4 (Mus musculus, UniProt P32240); assay: as above
T2 construct: expressed in transfected cells; host or cells: COS-7
T2 sequence (P32240 whole entry): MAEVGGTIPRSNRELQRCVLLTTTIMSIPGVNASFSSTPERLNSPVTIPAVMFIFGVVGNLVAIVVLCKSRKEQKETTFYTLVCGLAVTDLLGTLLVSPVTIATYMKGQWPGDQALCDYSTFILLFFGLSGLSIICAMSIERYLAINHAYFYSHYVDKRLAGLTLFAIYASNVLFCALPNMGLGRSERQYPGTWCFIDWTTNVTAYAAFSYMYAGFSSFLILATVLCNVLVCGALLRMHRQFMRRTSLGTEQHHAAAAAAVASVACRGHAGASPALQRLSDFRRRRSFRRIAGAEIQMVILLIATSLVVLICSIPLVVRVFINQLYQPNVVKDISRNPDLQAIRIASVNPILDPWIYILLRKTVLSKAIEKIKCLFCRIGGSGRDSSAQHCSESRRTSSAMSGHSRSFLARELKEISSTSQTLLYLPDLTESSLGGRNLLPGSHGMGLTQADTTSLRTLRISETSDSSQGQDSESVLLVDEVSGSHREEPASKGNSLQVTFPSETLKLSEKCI
Description: as §1

Human IP = biological target: T3, Human IP (Homo sapiens, UniProt P43119); assay: Receptor affinity, tritium-labeled iloprost binding to membranes of transfected COS-7 cells; conditions: COS-7 cell membranes
T3 construct: expressed in transfected cells; host or cells: COS-7
T3 sequence (P43119 whole entry): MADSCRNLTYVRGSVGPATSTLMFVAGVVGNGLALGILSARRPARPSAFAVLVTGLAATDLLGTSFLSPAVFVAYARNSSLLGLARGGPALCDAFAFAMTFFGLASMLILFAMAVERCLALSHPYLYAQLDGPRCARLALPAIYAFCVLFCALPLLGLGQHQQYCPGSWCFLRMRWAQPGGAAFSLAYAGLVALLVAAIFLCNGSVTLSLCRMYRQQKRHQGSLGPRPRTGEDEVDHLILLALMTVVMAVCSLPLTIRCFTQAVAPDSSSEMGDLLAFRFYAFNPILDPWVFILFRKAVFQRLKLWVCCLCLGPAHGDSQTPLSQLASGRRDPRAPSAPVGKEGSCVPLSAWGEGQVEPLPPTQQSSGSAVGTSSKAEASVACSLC
Description: PG receptor affinity of compound F and compound J of the present invention was evaluated. Compound F used was one synthesized in Example 9, and compound J was prepared by separating and purifying the compound synthesized in Example 14 with a column (the same preparations were used in the following Examples). COS-7 cells were transfected with the genes of mouse EP4, human EP1-4 or human IP to overexpress the receptor and then the cell membranes were collected. As a labeled ligand, tritium-labeled PGE2 was used for EPs; tritium-labeled iloprost, for IP. The dissociation constant Kd value was obtained and inhibition constant Ki value of each test compound was determined in a conventional method. As a reference control, PGE2 was used for EPs; beraprost sodium (BPS), for IP.

[1] = tested on: blood pressure and heart rate; assay: Effect on blood pressure and heart rate in mice; type: in vivo, ICR mice; conditions: intravenous 0.01 mg/5 mL/kg, isoflurane anesthesia
Description: Male ICR mice (5 weeks old, Japan SLC) were purchased, acclimated for 6 days and used for the test. The animals were treated and measured under isoflurane inhalation anesthesia (anesthesia introduced at 2.5%, maintained at 1.8-2.1%), while body temperature was kept at 37°C with a Heat Controller (ATC-402, Unique Medical Co., Ltd.). A catheter for administration of test compounds was inserted into the left femoral vein, and another catheter was inserted into the right femoral artery and connected to a pressure transducer to record each parameter of hemodynamics.
Compound F, the carboxylate form of compound F and BPS were intravenously administered at a dose of 0.01 mg/5 mL/kg, and the effect on the mean blood pressure and heart rate was evaluated with computer software for the analysis of hemodynamics (Fluclet, Dainippon Sumitomo Pharma Co., Ltd.). To the control group was intravenously administered a solvent (1.2% ethanol solution) at 5 mL/kg in the same manner. The results are expressed as a ratio of change in each parameter before and after the drug administration. Three to 6 animals were used for each group, and the results were expressed as average ± standard deviation.

IP-10 = assay: Suppressive effect on cytokine production, whole blood stimulated with lipopolysaccharide, ELISA; type: cell-based; conditions: human whole blood, indometacin, 48 hr, geometric mean of three volunteers
[2] = tested on: dextran sodium sulfate-induced colitis; assay: Prophylactic effect on dextran sodium sulfate-induced colitis model in mice (BALB/c); type: in vivo; conditions: 2.2 w/v% DSS
Description: Female BALB/c mice (6 weeks old, Japan SLC) were purchased, acclimated for 1 week and used for the study. Except the normal group, the mice were allowed to freely drink a dextran sodium sulfate (to be abbreviated as DSS, MP Biochemicals, M.W. 36,000 - 50,000, Lot No. 3439J) solution prepared to 2.2 w/v% for 9 days to induce colitis. Compound F was orally administered at doses of 0.1, 0.3 and 1 mg/kg, once a day, daily, from the start day of DSS drinking (day 0) to one day before autopsy (day 9). To the control group was orally administered a solvent (1 vol% ethanol solution) at 10 mL/kg in the same manner.
Thus, to determine the level of diarrhea, the stool was graded into 6 levels; normal (score 0), spherical stool being not less than 50% (score 1), banana-shaped stool being less than 50% (score 2), banana-shaped stool being not less than 50% (score 3), muddy stool (score 4), watery stool (score […]) (stool consistency score). The fecal occult blood (including proctorrhagia) was graded using fecal occult blood slide 5 Shionogi II (Shionogi & Co., Ltd.) into 6 levels; negative (no change of the slide color from yellow, score 0), weakly positive (slightly blue green, score 1), positive (blue green, score 2), moderately positive (clear blue green, score 3), strongly positive (instantaneous color change to dark blue with color developer, score 4), and proctorrhagia (score 5). The sum of the stool consistency score and occult blood score was defined as the stool score. Eight to 10 animals were used for each group, and the results were expressed as average ± standard deviation. On the day of autopsy, after laparotomy under ether anesthesia and blood collection, the mice were exsanguinated to death. Then the large intestines were dissected from just below the cecum to the anus and the length thereof was measured.

[3] = tested on: dextran sodium sulfate-induced colitis; assay: Dextran sodium sulfate-induced colitis model in mice (C57BL/6); type: in vivo; conditions: C57BL/6 mice, DSS, oral 0.3 and 1 mg/kg once a day
Description: Female C57BL/6 mice (6 weeks old, Japan SLC) were purchased, acclimated for 1 week and used for the study. Except the normal group, the mice were allowed to freely drink a 3 or 2 w/v% DSS (MP Biochemicals, Lot No. 5653H and 5464H, respectively) solution for 1 week to induce colitis. BPS at a dose of 0.3 mg/kg and compound F at doses of 0.3 and 1 mg/kg were orally administered once a day, daily, from the start day of DSS drinking (day 0) to one day before autopsy (day 9). To the control group was orally administered a solvent (1 vol% ethanol solution) at 10 mL/kg in the same manner. The consistency of the stool was graded from score 0 to 4, with normal (0), partly loose stool (1), loose stool (2) and diarrhea (4). The blood feces was also graded from score 0 to 4, with normal (0), partly blood feces (1), blood feces (2) and blood feces plus proctorrhagia (4). The sum of both grades was defined as the stool score (maximum 8). Furthermore, the length of the large intestine was measured in the same manner as in Example 23. Six to 10 animals were used for each group, and the results are shown in average ± standard deviation.

T1 sequence (P43116 whole entry): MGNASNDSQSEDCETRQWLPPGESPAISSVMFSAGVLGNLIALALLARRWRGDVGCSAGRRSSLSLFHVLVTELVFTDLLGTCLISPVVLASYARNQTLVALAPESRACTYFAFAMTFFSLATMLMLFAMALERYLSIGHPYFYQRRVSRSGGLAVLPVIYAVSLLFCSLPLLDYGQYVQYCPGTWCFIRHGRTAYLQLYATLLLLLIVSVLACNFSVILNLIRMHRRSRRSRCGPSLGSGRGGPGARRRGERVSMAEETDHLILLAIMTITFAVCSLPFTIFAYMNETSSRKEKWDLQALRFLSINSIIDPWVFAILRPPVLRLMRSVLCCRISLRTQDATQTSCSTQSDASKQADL

Ki (Human EP2): 570 nM
Ki (Mouse EP4): 68 nM
Ki (Human IP): 670 nM
IC50 (IP-10): 1.14 nM
SMILES: Cc1cccc([C@@H](C)[C@H](O)/C=C/[C@@H]2[C@@H]3[C@H](C[C@H]2O)O/C(=C\CCCc2nnn[nH]2)C3(F)F)c1 [Compound F, 4-[(Z)-(1S,5R,6R,7R)-6-[(1E,3R,4R)-3-hydroxy-4-(m-tolyl)-1-pentenyl]-7-hydroxy-2-oxa-4,4-difluoro-bicyclo[3.3.0]octan-3-ylidene]-1-(tetrazol-5-yl)butane]
effect on heart rate [1]: little effect on the heart rate
maximum decrease ratio of mean blood pressure [1]: 16.2%
suppression of the increase in the stool score ([2]; oral 0.1 mg/kg once a day): suppressive tendency
suppression of the increase in the stool score ([2]; oral 0.3 mg/kg once a day): significant
suppression of the increase in the stool score ([2]; oral 1 mg/kg once a day): significant
effect on shortening of the large intestine ([2]; oral 0.1, 0.3 and 1 mg/kg once a day): dose-dependent suppressive effect on shortening of the large intestine
effect on the onset of colitis (stool score, colon shortening) [3]: superior prophylactic effect on the onset of colitis
